Consider two molecules from US7423015B1, “Antihelminthic drugs as a treatment for hyperproliferative diseases” (Board of Regents, The University of Texas System, priority 2001, dated 2008).

The subject of one data set is A549 lung cancer cells. Nature of the data set: Apoptotic cells by TdT-FACS analysis. The data set is classed as cell-based, human. A general note: A flow cytometer gives signals particle by particle.
In data set [1] the test system is H460 human non-small cell lung cancer xenograft. The data set is classed as in vivo, athymic nu/nu mice. The protocol:
Mice that had received 3.5 Gy of total body irradiation 1 day before inoculation were given injections into the shoulder of 2×10^6 tumor cells. Mice were then given MZ oral suspension (100 mg Vermox chewable tablet, Janssen Pharmaceutica, NJ, suspended in 10 ml PBS by sonication for 30 sec) with indicated concentration every other day, starting the day after 3-5 mm tumor established. Five mice were used in each group. Control and treated mice were then monitored for tumor growth; the tumors were measured externally in cross-sectional diameter every 7 days. Tumor volumes were calculated as previously described. Experiments were repeated three times.
The in vitro effect of MZ on proliferation of tumor cell lines prompted us to investigate its antitumor activity in an athymic nu/nu mouse model. Tumors were established by subcutaneous injection of H460 cells, a human non-small cell lung cancer (NSCLC) cell line ([…] cells/mouse) (FIG. 5B). […] Moreover, 10/10 animals inoculated with 1×10^6 cells developed tumors within 12 days. […] T0.2, T0.4 and T0.8 correspond to 0.2, 0.4 and 0.8 mg of MZ treatment groups (FIG. 5C). Animals with established tumors, 3-5 mm in diameter, received MZ every other day for 4 weeks, after which tumors were harvested, photographed, and weighed.

In data set [2] the test system is breast, ovarian and colon carcinoma and osteosarcoma. Kind of data set: In vitro proliferation assay with MZ. Conditions: Homo sapiens. The data set is classed as cell-based.
A further data set has as its target topoisomerase I (Homo sapiens, UniProt P11387). Nature of the data set: Test for topoisomerase I poison effect. The data set is classed as biochemical. From the text:
It has been shown recently that BZ are substrates for the P-glycoprotein transporter in multidrug-resistant tumor cells (Nare et al. 1994). It may be speculated that P-glycoprotein, which is overexpressed in several normal tissues and organs, could mediate the transport of BZ. Some terbenzimidazole compounds have been reported to be topoisomerase I poisons (Pilch et al., 1996).

Data set [3] has as its system human lung cancer cell lines (H460 and A549). Nature of the data set: In vitro proliferation assay with MZ, cell count. The data set is classed as cell-based. The conditions noted are these: 24 h treatment, read-out: half maximal inhibitory concentration (IC50). The protocol:
(§1) Cells of the human non-small cell lung cancer (NSCLC) cell line A549, WI-38 normal fibroblast (American Type Culture Collection, Rockville, Md.) and H460 (a gift from Drs. Adi Gazdar and John Minna. University of Texas Southwestern Medical Center, Dallas) were seeded on culture plates (2×10^4 cells/well) in F12 and RPMI medium, respectively, supplemented with 10% heat-inactivated fetal calf serum and antibiotics. HUVEC were grown in medium supplemented with growth factor (Clonetics, San Diego). The cells were then exposed to MZ dissolved in dimethyl sulfoxide (DMSO) when grown to 40-50% confluence. Cell growth was monitored by counting the cells using a hemocytometer.
(§2) Initially, the inventors examined the effect of MZ on proliferation of human lung cancer cell lines (H460 and A549) in vitro.

In data set [4] the test system is human vascular endothelial cells (HUVEC). Kind of data set: In vitro proliferation assay with MZ, cell count. The data set is classed as cell-based. Conditions: 24 h treatment. The protocol:
as §1, §2

In data set [5] the test system is adenovirus expressed MDA-7. Nature of the data set: Adenovirus expressed MDA-7 levels. The data set is classed as cell-based.
Data set [6] relates to HUVEC cell tube formation. Kind of data set: HUVEC tube formation in conditioned medium. The data set is classed as cell-based, human. An excerpt: (§3) One of the most encouraging findings is that MZ inhibited the neovascularization in the human xenografts tested. […] The inventors have thus shown that MZ is a potent antiangiogeneic agent. It had no effect on endothelial cell growth, instead directly targeting tumor cells in vivo. MZ may be effective in the treatment of cancer and other angiogenesis-dependent diseases.

Data set [7] relates to tumor vascularity of H460 xenografts (CD31). Kind of data set: Immunohistochemical analysis of CD31 in H460 tumors. The data set is classed as in vivo, nu/nu mice. The conditions noted are these: H460 xenografts in nude mice. As to the method: Subcutaneous H460 tumors established in nu/nu mice that were either not treated or treated with MZ were harvested and fixed in 4% buffered formalin, paraffin embedded, and cut as […] thick sections. Tissue sections were stained for CD31 expression using rat anti-mouse CD31 antibody (Pharmingen) as previously described with slight modifications. Briefly, following deparafinzation and rehydration, tissue sections were treated with 0.3% H2O2 in methanol for 30 min to block endogenous peroxidase activity and were subsequently incubated with normal rat serum for 30 min at room temperature. Following incubation, slides were treated with protease for 15 min followed with rat monoclonal anti-CD31 antibody (1:1000 dilution) for 60 minutes. After 30 min incubation with anti-rat secondary antibody (provided with ABC kit, Vector) CD31 in tissues was detected with DAB by enhancement with avidin-biotin reaction ABC kit. The slides were counterstained with hematoxylin and then mounted with Aqua-mount (Lerner Labs, Pittsburgh, Pa.). The number of vascular areas staining positive for CD31 were analyzed under bright-field microscopy. A total of at least five fields per specimen were analyzed. In all the staining procedures, appropriate negative controls were included. […]

Data set [8] has as its system neovascularization induced by A549 cells. Kind of data set: Angiogenesis by tumor cells in vivo, dorsal air-sac method. The arrangement: species or system nude mouse. The conditions noted are these: MZ oral suspension 1 mg/mouse/day, day 5. As to the method:
In vivo angiogenesis was assayed by the dorsal air-sac method (Bouvet et al., 1998). Briefly, 1×10^7 cultured A549 cells were suspended in PBS and packed into round cellulose ester membrane chambers with a diameter of 14 mm (pore size, 0.45 μm; Millipore, Bedford, Mass.). The chambers were then implanted into a dorsal air sac of a nude mouse. After the chamber implantation mice were fed with MZ oral suspension (1 mg/mouse/day). Five mice were used in each group. The mice were killed on day 5, and the subcutaneous region overlying the chamber in each mouse was photographed. The experiment was repeated two times with identical results.
In vivo angiogenesis was further assayed by the dorsal air-sac method (Tanaka et al., 1989). Subcutaneous neovascularization overlying a semipermeable membrane chamber containing […] cells. […] In order to exclude the possibility that the reduced vasculature was due to lack of viable tumor cells in the chamber, cells were prelabeled with fluorescent dye and injected into the chamber. After the blood vessels were photographed, the tumor cells on the membrane was examined under a fluorescence microscope.

The test system of another data set is VEGF. Kind of data set: VEGF expression/secretion in H460 cell line. Conditions: H460, treatment period 18 hours. The data set is classed as cell-based, human. As to the method: FIG. 7. Percent Inhibition of VEGF Expression in H460 Cell Line After MZ Treatment. Treatment period was 18 hours; control (C); treatment (T).
as §3

Chain of topoisomerase I (P11387 whole entry): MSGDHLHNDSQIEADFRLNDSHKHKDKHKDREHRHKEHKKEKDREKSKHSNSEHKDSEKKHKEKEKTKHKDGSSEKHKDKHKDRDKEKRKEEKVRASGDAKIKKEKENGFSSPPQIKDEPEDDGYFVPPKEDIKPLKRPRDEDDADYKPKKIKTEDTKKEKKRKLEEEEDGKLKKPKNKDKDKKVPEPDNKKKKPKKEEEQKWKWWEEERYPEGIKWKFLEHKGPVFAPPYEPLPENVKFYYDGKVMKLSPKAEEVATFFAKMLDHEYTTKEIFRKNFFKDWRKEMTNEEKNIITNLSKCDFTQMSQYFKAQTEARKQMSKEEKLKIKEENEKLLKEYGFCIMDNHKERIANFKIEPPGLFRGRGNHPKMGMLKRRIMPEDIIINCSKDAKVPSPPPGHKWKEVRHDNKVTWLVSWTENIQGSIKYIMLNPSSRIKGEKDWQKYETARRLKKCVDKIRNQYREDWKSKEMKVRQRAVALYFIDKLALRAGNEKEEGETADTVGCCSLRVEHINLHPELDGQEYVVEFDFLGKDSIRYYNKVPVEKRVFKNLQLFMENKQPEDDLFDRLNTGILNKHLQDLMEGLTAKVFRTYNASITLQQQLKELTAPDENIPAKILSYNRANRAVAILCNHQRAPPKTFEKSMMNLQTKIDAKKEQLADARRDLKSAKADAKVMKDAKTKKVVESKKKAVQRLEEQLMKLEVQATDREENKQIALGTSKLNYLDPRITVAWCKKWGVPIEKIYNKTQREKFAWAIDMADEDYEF
Experimental for A549 lung cancer cells: Approximately 10^4 cells were seeded on tissue culture plates 24 h before drug treatment or adenoviral infection. […] FIG. 4C—A549 lung cancer cells were examined for apoptotic cell death 48 h after FZ and Ad5p53 treatment alone or in combination. Percent apoptotic cells were measured by TdT-FACS analysis.
For TdT FACS analysis control and treated cells were collected by trypsinization, washed in PBS, and fixed overnight in 70% ethanol. The next day, cells were rehydrated in PBS for 30 min, centrifuged, and resuspended in PBS. For DNA analysis, propidium iodide (PI) was added at 50 μg/ml, and the cells were incubated in the presence of RNase A (15 mg/ml for 30 min at 37° C.). To detect DNA strand breaks associated with apoptosis, cells were fixed in 1% formaldehyde for 15 min at 4° C., rinsed in PBS, and stored at 4° C. in ice-cold 70% ethanol. Before staining, the cells were washed in PBS, and 10^6 cells were resuspended in 50 ml of cacodylated buffer containing 100 μ/ml TdT enzyme and 0.5 nM biotin-16 dUTP for 30 min at 37° C. Cells were washed in PBS and resuspended in 100 ml of 4×SSC containing 2.5 mg/ml fluoresceinated avidin, 0.1% Triton X-100, and 5% dry fat milk and then incubated at room temperature for 30 min in the dark. […] Flow cytometry was carried out in a fluorescence-activated cell sorter (Epics Elite; Coulter, Inc., Hialeah, Fla.).

As for `COC(=O)Nc1nc2ccc(Sc3ccccc3)cc2[nH]1` [Fenbendazole, methy 5-(phenylthio)-2-benzimidazole-2-carbamate], the apoptotic cells was determined as 30% with A549 lung cancer cells (48 h after combination treatment FZ and Ad5p53); 11% with A549 lung cancer cells (FZ treatment alone).

With `COC(=O)Nc1nc2ccc(C(=O)c3ccccc3)cc2[nH]1` [Mebendazole, Methyl 5-benzoylbenzimidazole-2-carbamate], the “tumor growth, dose escalation” value in data set [1] (0.2, 0.4 and 0.8 mg of MZ every other day) is given as “suppressed the growth of the tumors in a dose-dependent manner”. The “tumor weight versus control animals” value in [1] (MZ every other day for 4 weeks) is listed as “marked difference”. Moreover, the tumor growth entry in data set [1] (established tumors (3 mm), 1 mg of MZ orally every other day) was “profoundly inhibit tumor growth”. In addition, the “toxicity in treated mice” value in data set [1] (mouse, in vivo) was “no signs of toxicity”. Also, the IC50 in [2] is 100 to 800 nM; in data set [3] it was around 120 nM. In addition, the “topoisomerase I poison effect” value on topoisomerase I was “could not detect any”. In addition, in data set [4], the “effect on growth of HUVEC” value is given as “no effect”. Further, the “levels of adenovirus expressed MDA-7” value in data set [5] was “increased levels”. The “HUVEC cell tube formation” value in [6] is “inhibited”. Moreover, the “neovascularization (blood vessel density, CD31)” value in data set [7] was “profoundly reduced”. In addition, the “number and caliber of blood vessels” value in [8] is reported as “significantly reduced”. Moreover, the VEGF secretion entry with VEGF was “marked down-regulation”.
